Assay results from the NIST ThermoML archive (doi:10.1021/acs.jced.8b01097).

Assay: xn = mol fraction of the nth substance listed
Conditions: 85 kPa, Liquid; for viscosity: Concentric cylinders viscometry; for mass density: Vibrating tube method

NCCCO [3-amino-1-propanol] + CCC(C)O
Conditions	mass density [kg/m3]	viscosity [mPa·s]
293.15 K, x2 = 0	987.8	37.33
293.15 K, x2 = 0.081	971.2	30.36
293.15 K, x2 = 0.1607	955.5	25.31
293.15 K, x2 = 0.2395	940.2	20.96
293.15 K, x2 = 0.3499	919.3	15.85
293.15 K, x2 = 0.4394	902.8	12.63
293.15 K, x2 = 0.5602	881	9.361
293.15 K, x2 = 0.658	863.9	7.574
293.15 K, x2 = 0.7408	849.7	6.103
293.15 K, x2 = 0.8511	830.9	4.795
293.15 K, x2 = 0.9396	816.2	4.079
298.15 K, x2 = 0	984.3	28.59
298.15 K, x2 = 0.081	967.8	23.43
298.15 K, x2 = 0.1607	951.9	19.73
298.15 K, x2 = 0.2395	936.6	16.46
298.15 K, x2 = 0.3499	915.6	12.59
298.15 K, x2 = 0.4394	899	10.15
298.15 K, x2 = 0.5602	877.2	7.634
298.15 K, x2 = 0.658	860	6.253
298.15 K, x2 = 0.7408	845.7	5.076
298.15 K, x2 = 0.8511	827	4.016
298.15 K, x2 = 0.9396	812.2	3.403
303.15 K, x2 = 0	980.3	22.31
303.15 K, x2 = 0.081	964	18.39
303.15 K, x2 = 0.1607	948.1	15.6
303.15 K, x2 = 0.2395	932.7	13.11
303.15 K, x2 = 0.3499	911.6	10.15
303.15 K, x2 = 0.4394	895	8.261
303.15 K, x2 = 0.5602	873.2	6.309
303.15 K, x2 = 0.658	856	5.213
303.15 K, x2 = 0.7408	841.7	4.261
303.15 K, x2 = 0.8511	823	3.377
303.15 K, x2 = 0.9396	808.2	2.853
308.15 K, x2 = 0	976.2	17.67
308.15 K, x2 = 0.081	959.9	14.66
308.15 K, x2 = 0.1607	944.2	12.51
308.15 K, x2 = 0.2395	928.7	10.58
308.15 K, x2 = 0.3499	907.6	8.29
308.15 K, x2 = 0.4394	890.9	6.808
308.15 K, x2 = 0.5602	869	5.251
308.15 K, x2 = 0.658	851.9	4.371
308.15 K, x2 = 0.7408	837.6	3.604
308.15 K, x2 = 0.8511	818.9	2.866
308.15 K, x2 = 0.9396	803.9	2.411
313.15 K, x2 = 0	972.3	14.21
313.15 K, x2 = 0.081	956.1	11.85
313.15 K, x2 = 0.1607	940.2	10.16
313.15 K, x2 = 0.2395	924.9	8.658
313.15 K, x2 = 0.3499	903.7	6.856
313.15 K, x2 = 0.4394	886.9	5.676
313.15 K, x2 = 0.5602	865	4.422
313.15 K, x2 = 0.658	847.8	3.715
313.15 K, x2 = 0.7408	833.5	3.07
313.15 K, x2 = 0.8511	814.7	2.446
313.15 K, x2 = 0.9396	799.6	2.053
318.15 K, x2 = 0	968.5	11.58
318.15 K, x2 = 0.081	952.4	9.715
318.15 K, x2 = 0.1607	936.6	8.364
318.15 K, x2 = 0.2395	921.1	7.173
318.15 K, x2 = 0.3499	899.8	5.733
318.15 K, x2 = 0.4394	882.9	4.781
318.15 K, x2 = 0.5602	860.9	3.758
318.15 K, x2 = 0.658	843.6	3.174
318.15 K, x2 = 0.7408	829.3	2.634
318.15 K, x2 = 0.8511	810.4	2.103
318.15 K, x2 = 0.9396	795.2	1.76
323.15 K, x2 = 0	964.9	9.546
323.15 K, x2 = 0.081	948.9	8.057
323.15 K, x2 = 0.1607	933	6.971
323.15 K, x2 = 0.2395	917.5	6.012
323.15 K, x2 = 0.3499	896.1	4.85
323.15 K, x2 = 0.4394	879.2	4.064
323.15 K, x2 = 0.5602	857	3.228
323.15 K, x2 = 0.658	839.7	2.731
323.15 K, x2 = 0.7408	825.2	2.275
323.15 K, x2 = 0.8511	806.1	1.82
323.15 K, x2 = 0.9396	790.8	1.519

CCC(C)O (stereo not drawn) [butan-2-ol] + CC(C)O
Conditions	mass density [kg/m3]	viscosity [mPa·s]
293.15 K, x1 = 0.0807	787.1	2.497
293.15 K, x1 = 0.1619	789.2	2.584
293.15 K, x1 = 0.2385	791	2.674
293.15 K, x1 = 0.3492	793.6	2.814
293.15 K, x1 = 0.4386	795.7	2.932
293.15 K, x1 = 0.56	798.3	3.097
293.15 K, x1 = 0.6489	800	3.221
293.15 K, x1 = 0.7402	801.8	3.352
293.15 K, x1 = 0.8494	803.7	3.511
293.15 K, x1 = 0.9403	805.3	3.648
293.15 K, x1 = 1	806.2	3.743
298.15 K, x1 = 0.0807	782.9	2.146
298.15 K, x1 = 0.1619	785	2.211
298.15 K, x1 = 0.2385	786.9	2.282
298.15 K, x1 = 0.3492	789.5	2.391
298.15 K, x1 = 0.4386	791.5	2.481
298.15 K, x1 = 0.56	794.1	2.607
298.15 K, x1 = 0.6489	795.9	2.702
298.15 K, x1 = 0.7402	797.6	2.801
298.15 K, x1 = 0.8494	799.6	2.923
298.15 K, x1 = 0.9403	801.1	3.028
298.15 K, x1 = 1	802	3.101
303.15 K, x1 = 0.0807	778.7	1.851
303.15 K, x1 = 0.1619	780.8	1.901
303.15 K, x1 = 0.2385	782.7	1.955
303.15 K, x1 = 0.3492	785.3	2.038
303.15 K, x1 = 0.4386	787.4	2.107
303.15 K, x1 = 0.56	790	2.204
303.15 K, x1 = 0.6489	791.8	2.276
303.15 K, x1 = 0.7402	793.5	2.352
303.15 K, x1 = 0.8494	795.5	2.444
303.15 K, x1 = 0.9403	797	2.524
303.15 K, x1 = 1	797.9	2.579
308.15 K, x1 = 0.0807	774.4	1.603
308.15 K, x1 = 0.1619	776.5	1.643
308.15 K, x1 = 0.2385	778.5	1.684
308.15 K, x1 = 0.3492	781.1	1.747
308.15 K, x1 = 0.4386	783.1	1.801
308.15 K, x1 = 0.56	785.7	1.876
308.15 K, x1 = 0.6489	787.5	1.932
308.15 K, x1 = 0.7402	789.3	1.991
308.15 K, x1 = 0.8494	791.2	2.062
308.15 K, x1 = 0.9403	792.7	2.121
308.15 K, x1 = 1	793.6	2.162
313.15 K, x1 = 0.0807	769.9	1.397
313.15 K, x1 = 0.1619	772.1	1.427
313.15 K, x1 = 0.2385	774	1.459
313.15 K, x1 = 0.3492	776.7	1.508
313.15 K, x1 = 0.4386	778.7	1.549
313.15 K, x1 = 0.56	781.3	1.608
313.15 K, x1 = 0.6489	783.1	1.652
313.15 K, x1 = 0.7402	784.9	1.697
313.15 K, x1 = 0.8494	786.8	1.751
313.15 K, x1 = 0.9403	788.4	1.798
313.15 K, x1 = 1	789.2	1.828
318.15 K, x1 = 0.0807	765.5	1.221
318.15 K, x1 = 0.1619	767.6	1.246
318.15 K, x1 = 0.2385	769.6	1.271
318.15 K, x1 = 0.3492	772.2	1.31
318.15 K, x1 = 0.4386	774.3	1.342
318.15 K, x1 = 0.56	776.9	1.388
318.15 K, x1 = 0.6489	778.7	1.422
318.15 K, x1 = 0.7402	780.4	1.457
318.15 K, x1 = 0.8494	782.4	1.5
318.15 K, x1 = 0.9403	783.9	1.536
318.15 K, x1 = 1	784.7	1.559
323.15 K, x1 = 0.0807	760.9	1.072
323.15 K, x1 = 0.1619	763.1	1.093
323.15 K, x1 = 0.2385	765	1.113
323.15 K, x1 = 0.3492	767.7	1.144
323.15 K, x1 = 0.4386	769.7	1.169
323.15 K, x1 = 0.56	772.4	1.205
323.15 K, x1 = 0.6489	774.2	1.231
323.15 K, x1 = 0.7402	775.9	1.258
323.15 K, x1 = 0.8494	777.9	1.291
323.15 K, x1 = 0.9403	779.4	1.318
323.15 K, x1 = 1	780.2	1.318
